pIC50: −log10 of the molar value. Counter-ions that a name gives are not always drawn.
Legend:
THP-1 = THP-1 IC50 assay; assay type: cell-based; details: Homo sapiens; THP-1 cells
[1] = test system: IL-1β release upon NLRP3 activation in peripheral blood mononuclear cells (PBMC); assay: PBMC IC50 Determination Assay; assay type: cell-based; details: Homo sapiens; inhibition of IL-1β release; LPS-primed PBMC stimulated with ATP or nigericin
Procedure: The compounds of the present disclosure were tested for their inhibitory activity against IL-1β release upon NLRP3 activation in peripheral blood mononuclear cells (PBMC).
Protocol A. PBMC were isolated from buffy coats by density gradient centrifugation on Histopaque-1077 (Sigma, cat no. 10771). Isolated cells were seeded into the wells of a 96-well plate and incubated for 3 h with lipopolysaccharide (LPS). Following medium exchange, the compounds of the present disclosure were added (a single compound per well) and the cells were incubated for 30 min. Next, the cells were stimulated either with ATP (5 mM) or nigericin (10 μM) for 1 h and the cell culture media from the wells were collected for further analysis.
The release of IL-1β into the media was determined by a quantitative detection of IL-1β in the media using an IL-1β enzyme-linked immunosorbent assay (ELISA) Ready-SET-Go!, eBioscience cat. No. 88-7261-88. Briefly, in a first step, high affinity binding plates (Corning, Costar 9018 or NUNC Maxisorp Cat No. 44-2404) were coated overnight at 4° C. with specific capture antibody included in the kit (anti-human IL-1β ref. 14-7018-68). Subsequently, plates were blocked with blocking buffer for 1 h at room temperature (rt) and after washing with a buffer (PBS with 0.05% Tween-20) incubated with protein standard and culture media. After 2 h of incubation at rt, plates were washed and incubated with biotinylated detection antibody included in the kit (anti-human IL-1β Biotin ref. 33-7110-68) for 1 h at rt. Plates were washed and incubated with HRP-streptavidin for 30 min at rt and washed again. The signal was developed after addition of 3,3′,5,5′-tetramethylbenzidine-peroxidase (TMB) until colour appeared and the reaction was stopped by 2 M H2SO4. A microplate spectrophotometer (BioTek) was used to detect signals with 450 nm. The detection range of IL-1β ELISA was […].
Protocol B. PBMC were isolated from buffy coats by density gradient centrifugation on Histopaque-1077 (Sigma, cat no. 10771). Isolated cells were seeded into the wells (280,000 cells/well) of a 96-well plate and incubated for 3 h with lipopolysaccharide (LPS, 1 μg/mL diluted 1000× from a 1 mg/mL stock solution). The compounds of the present disclosure were added (a single compound per well) and the cells were incubated for 30 min. Next, the cells were stimulated with ATP (5 mM final concentration diluted 20× from a 100 mM stock solution) for 1 h and the cell culture media from the wells were collected for further analysis.
The release of IL-1β into the media was determined by quantitative detection of IL-1β in the media using HTRF®, CisBio cat. No. 62HIL1BPEH. Briefly, cell culture supernatant were dispensed directly into the assay plate containing antibodies labelled with the HTRF® donor and acceptor. A microplate spectrophotometer (BMG) was used to detect signals at 655 nm and 620 nm. The detection range of IL-1β HTRF® was 39-6500 μg/mL.

Row | Structure (SMILES) | pIC50 (THP-1) | pIC50 [1]
1 | Cc1cc(C(F)(F)F)cc(O)c1-c1ccc(CNC(=O)C2CCOCC2)nn1 [Compound 7, N-((6-(2-Hydroxy-6-methyl-4-(trifluoromethyl)phenyl)pyridazin-3-yl)methyl)tetrahydro-2H-pyran-4-carboxamide] | 5.00 to 5.52 | 5.00 to 5.52
2 | COCC(=O)NCc1ccc(-c2c(C)cc(C(F)(F)F)cc2O)nn1 [Compound 8, N-((6-(2-Hydroxy-6-methyl-4-(trifluoromethyl)phenyl)pyridazin-3-yl)methyl)-2-methoxyacetamide] | 5.00 to 5.52 | 5.52 to 6.00
3 | Cc1c(C(F)(F)F)ccc(-c2ccc(CNC3CCOCC3)nn2)c1O [Compound 9, 2-Methyl-6-(6-(((tetrahydro-2H-pyran-4-yl)amino)methyl)pyridazin-3-yl)-3-(trifluoromethyl)phenol] | ≤ 5.00 | ≤ 5.00
4 | Oc1cc(C(F)(F)F)ccc1-c1ccc(CNC2CCOCC2)nn1 [Compound 13, 2-(6-(((Tetrahydro-2H-pyran-4-yl)amino)methyl)pyridazin-3-yl)-5-(trifluoromethyl)phenol] | 5.00 to 5.52 | 5.00 to 5.52
5 | Oc1cc(C(F)(F)F)cc(Cl)c1-c1ccc(CNC2CCOCC2)nn1 [Compound 14, 3-Chloro-2-(6-(((tetrahydro-2H-pyran-4-yl)amino)methyl)pyridazin-3-yl)-5-(trifluoromethyl)phenol] | 5.52 to 6.00 | 5.52 to 6.00
6 | Cc1cc(-c2ccc(CNC3CCOCC3)nn2)c(O)cc1C(F)(F)F [Compound 15, 4-Methyl-2-(6-(((tetrahydro-2H-pyran-4-yl)amino)methyl)pyridazin-3-yl)-5-(trifluoromethyl)phenol] | ≤ 5.00 | ≤ 5.00
7 | Oc1cc(Cl)ccc1-c1ccc(CNC2CCOCC2)nn1 [Compound 16, 5-Chloro-2-(6-(((tetrahydro-2H-pyran-4-yl)amino)methyl)pyridazin-3-yl)phenol] | 5.52 to 6.00 | ≤ 5.00
8 | Cc1cc(C(F)(F)F)cc(O)c1-c1ccc(COC2CCOCC2)nn1 [Compound 17, 3-methyl-2-(6-(((tetrahydro-2H-pyran-4-yl)oxy)methyl)pyridazin-3-yl)-5-(trifluoromethyl)phenol] | 5.52 to 6.00 | 5.00 to 5.52
9 | Cc1cc(C(F)(F)F)cc(O)c1-c1ccc(COC2CCCNC2)nn1 (stereo not drawn) [Compound 18, 3-Methyl-2-(6-((piperidin-3-yloxy)methyl)pyridazin-3-yl)-5-(trifluoromethyl)phenol] | 5.52 to 6.00 | 6.00 to 6.30
10 | Cc1cc(C(F)(F)F)cc(O)c1-c1ccc(COC2CCNCC2)nn1 [Compound 19, 3-Methyl-2-(6-((piperidin-4-yloxy)methyl)pyridazin-3-yl)-5-(trifluoromethyl)phenol] | 5.52 to 6.00 | 5.52 to 6.00
11 | Cc1cc(C(F)(F)F)cc(O)c1-c1ccc(CN)nn1 [Compound 20, 2-[6-(aminomethyl)pyridazin-3-yl]-3-methyl-5-(trifluoromethyl)phenol] | 5.00 to 5.52 | 5.52 to 6.00
12 | Cc1cc(C(F)(F)F)cc(O)c1-c1ccc(CNC2CCCN(C)C2)nn1 (stereo not drawn) [Compound 22] | 5.52 to 6.00 | 5.52 to 6.00
13 | Cc1cc(C(F)(F)F)cc(O)c1-c1ccc(CN2C(=N)N(C)CC2=O)nn1 [Compound 23] | 5.00 to 5.52 | 5.00 to 5.52
14 | Cc1cc(C(F)(F)F)cc(O)c1-c1ccc(Cn2ccc(=N)cc2)nn1 [Compound 25] | 5.00 to 5.52 | 5.00 to 5.52
15 | Cc1cc(C(F)(F)F)cc(O)c1-c1ccc(CNc2cncnc2)nn1 [Compound 26] | 5.52 to 6.00 | 6.00 to 6.30
16 | Cc1cc(C(F)(F)F)cc(O)c1-c1ccc(CNc2ccnn2C)nn1 [Compound 27] | 5.52 to 6.00 | 6.00 to 6.30
17 | Cc1cc(Br)cc(O)c1-c1ccc(CNC2CCOCC2)nn1 [Compound 29, 5-Bromo-3-methyl-2-(6-(((tetrahydro-2H-pyran-4-yl)amino)methyl)pyridazin-3-yl)phenol] | > 6.30 | > 6.30
18 | Cc1cc(OC(F)(F)F)cc(O)c1-c1ccc(CNC2CCOCC2)nn1 [Compound 30, 3-Methyl-2-(6-(((tetrahydro-2H-pyran-4-yl)amino)methyl)pyridazin-3-yl)-5-(trifluoromethoxy)phenol] | 5.00 to 5.52 | 5.00 to 5.52
19 | Cc1cc(NCc2ccc(-c3c(C)cc(C(F)(F)F)cc3O)nn2)no1 [Compound 31, 3-Methyl-2-(6-(((5-methylisoxazol-3-yl)amino)methyl)pyridazin-3-yl)-5-(trifluoromethyl)phenol] | 5.52 to 6.00 | > 6.30
20 | Cc1cc(C(F)(F)F)cc(O)c1-c1ccc(CNC2CC(F)(F)C2)nn1 [Compound 143] | – | > 6.30
21 | Cc1cnc(NCc2ccc(-c3c(C)cc(C(F)(F)F)cc3O)nn2)o1 [Compound 148] | 5.52 to 6.00 | –

Continued, in another order:

Row | pIC50 (THP-1) | Structure (SMILES) | pIC50 [1]
22 | 6.00 to 6.30 | Cc1cc(C(F)(F)F)cc(O)c1-c1ccc(CNC2CCOCC2)nn1 [Compound 1, 3-Methyl-2-(6-(((tetrahydro-2H-pyran-4-yl)amino)methyl)pyridazin-3-yl)-5-(trifluoromethyl)phenol] | 6.00 to 6.30
23 | 6.00 to 6.30 | Cc1cc(C(F)(F)F)cc(O)c1-c1ccc(CNC2CC3(COC3)C2)nn1 [Compound 2, 2-(6-(((2-Oxaspiro[3.3]heptan-6-yl)amino)methyl)pyridazin-3-yl)-3-methyl-5-(trifluoromethyl)phenol] | 6.00 to 6.30
24 | 6.00 to 6.30 | Cc1cc(C(F)(F)F)cc(O)c1-c1ccc(CNC2CC3(C2)CS(=O)(=O)C3)nn1 [Compound 3, 6-(((6-(2-Hydroxy-6-methyl-4-(trifluoromethyl)phenyl)pyridazin-3-yl)methyl)amino)-2-thiaspiro[3.3]heptane 2,2-dioxide] | 6.00 to 6.30
25 | 5.52 to 6.00 | Cc1cc(C(F)(F)F)cc(O)c1-c1ccc(CNC2CC3CCOC32)nn1 (stereo not drawn) [Compound 4, 2-(6-(((2-Oxabicyclo[3.2.0]heptan-7-yl)amino)methyl)pyridazin-3-yl)-3-methyl-5-(trifluoromethyl)phenol] | 5.52 to 6.00
26 | 6.00 to 6.30 | Cc1cc(C(F)(F)F)cc(O)c1-c1ccc(CNC2(C)CCOCC2)nn1 [Compound 5, 3-Methyl-2-(6-(((4-methyltetrahydro-2H-pyran-4-yl)amino)methyl)pyridazin-3-yl)-5-(trifluoromethyl)phenol] | 6.00 to 6.30
27 | 6.00 to 6.30 | Cc1cc(C(F)(F)F)cc(O)c1-c1ccc(CNC2(C)CCOC2)nn1 (stereo not drawn) [Compound 6, 3-Methyl-2-(6-(((3-methyltetrahydrofuran-3-yl)amino)methyl)pyridazin-3-yl)-5-(trifluoromethyl)phenol hydrochloride] | 6.00 to 6.30
28 | 5.52 to 6.00 | Cc1cc(CNC2CCOCC2)nnc1-c1c(C)cc(C(F)(F)F)cc1O [Compound 10, 3-Methyl-2-(4-methyl-6-(((tetrahydro-2H-pyran-4-yl)amino)methyl)pyridazin-3-yl)-5-(trifluoromethyl)phenol] | 5.52 to 6.00
29 | 5.52 to 6.00 | Cc1cc(CNC2CCOCC2)nnc1-c1ccc(C(F)(F)F)cc1O [Compound 11, 2-(4-Methyl-6-(((tetrahydro-2H-pyran-4-yl)amino)methyl)pyridazin-3-yl)-5-(trifluoromethyl)phenol] | 5.52 to 6.00
30 | > 6.30 | Cc1cc(Cl)cc(O)c1-c1ccc(CNC2CCOCC2)nn1 [Compound 12, 5-Chloro-3-methyl-2-(6-(((tetrahydro-2H-pyran-4-yl)amino)methyl)pyridazin-3-yl)phenol] | > 6.30
31 | 6.00 to 6.30 | Cc1cc(C(F)(F)F)cc(O)c1-c1ccc(CNC2COC2)nn1 [Compound 21] | 6.00 to 6.30
32 | 6.00 to 6.30 | CC(=O)N1CCC(NCc2ccc(-c3c(C)cc(C(F)(F)F)cc3O)nn2)C1 (stereo not drawn) [Compound 24] | > 6.30
33 | 6.00 to 6.30 | Cc1cc(C(F)(F)F)cc(O)c1-c1ccc(CNc2cscn2)nn1 [Compound 28] | 6.00 to 6.30
34 | 6.00 to 6.30 | Cc1cc(C(F)(F)F)cc(O)c1-c1ccc(CN[C@@H]2CCOC2)nn1 [Compound 32, (R)-3-Methyl-2-(6-(((tetrahydrofuran-3-yl)amino)methyl)pyridazin-3-yl)-5-(trifluoromethyl)phenol] | > 6.30

— US20250115558A1, “PYRIDAZINE DERIVATIVES AND RELATED USES” (NodThera Limited, priority 2023, published 2025)
